Assay results reported in patent US8663669B2, “Pesticide treatment of soils or substrates with sulphur compounds” (Arkema France, priority 2002, dated 2014).

Tested on: Sclerotinia sclerotiorum
Assay: Fungicidal efficacy by gassing, sclerotia
Format: cell-based
Parameters: Vitality score Nm (over 19 days): scale not given here; Reduction in viability RV / Reduction in vitality score RNm: unit not given here
Settings: for Reduction in viability RV / Reduction in vitality score RNm: compared with the control
Procedure: These four organisms are the following:
Sclerotinia sclerotiorum: polyphagous fungus which attacks mainly melon crops.
• Sclerotinia sclerotiorum: sclerotia • Sclerotium rolfsii: sclerotia • Rhizoctonia solani: colonized barley grains (mycelium and sclerotia) • Phytophthora cactorum: colonized millet grains (mycelium, sporangia and oospores) Preparation of the Fungi (24 h Before the Gassing Operation) 1. Preparation of the sclerotia of Sclerotinia sclerotiorum and of Sclerotium rolfsii: The fungi are cultured on malt agar medium until the sclerotia are obtained. The sclerotia are collected in a sterile manner and stored dry in empty Petri dishes until they are used. The sclerotia used for the trial are over 3 months old and are perfectly dormant. 2. Preparation of Phytophthora cactorum and of Rhizoctonia solani: The millet and barley used for the multiplication of the two fungi are moistened with ultrapure water by immersing for 24 hours. The grains are then slightly drained and then distributed into flasks and autoclaved (3 autoclavings at 110° C. for 20 minutes, 3 times at 24 hour intervals). Fragments of fungal culture are introduced into the flasks which are then incubated at 22° C.±2° C. (white light 18 h) until homogeneous colonization is obtained. The grains are then removed from the flasks in a sterile manner, dried in the sterile stream of a safety cabinet and then stored in the dry state until they are used. Conditions for Gassing and for Desorption
All the batches of fungi to be treated are placed for a few hours at the trial temperature (20° C.). Between 35 and 300 units of fungi or “propagules” (grains or sclerotia) are subjected to gassing during each trial.
Each fumigation chamber comprising to one or more species of fungi corresponds to a glass round-bottomed flask which is impervious to the gas and has a volume of 11 litres. Each round-bottomed flask is equipped with branch connections, one at the bottom for introducing the liquid DMDS, one at the top for collecting the air sample with a syringe.
Before introducing the gas, a partial vacuum (−500 mbar) is established in the round-bottomed flask with a vacuum pump. This makes it possible, on the one hand, to avoid the phenomenon of excess pressure due to the expansibility of DMDS in the round-bottomed flask and, on the other hand, to promote better homogeneity of the air-gas mixture in the first few seconds which follow injection. The DMDS (weighed accurately to the mg) is injected with a syringe, in liquid form, through the bottom branch connection, that is to say under the screen placed at half height of the round-bottomed flask and supporting the batches of fungi. After introducing the product, the internal pressure of the round-bottomed flask is re-established at atmospheric pressure. A magnetic stirrer operates during the entire duration of the treatment in order to properly homogenize the air-gas mixture.
At the end of the gassing, the cover for the round-bottomed flask is removed. One minute after this operation, the batches of fungi gassed are taken out and left in the open air for 15 minutes for desorption of the DMDS. They are then transferred into a Petri dish, the latter remaining open for 5 minutes to allow perfect desorption of the gas.
The mean concentration (C in g/m^3) of DMDS in the fumigation chamber after homogenization of the gas in the chamber air is measured by GC with an FID detector and, taking into account the duration of exposure (T in hours), the product CT (g·h/m^3) is calculated which, in the field of fumigation, is the key parameter to be considered, since the biological efficacy of a gas towards a given pathogenic agent is only effective if the latter was exposed to a certain mean concentration C for a certain duration of exposure T, that is to say to a certain value of the product CT, a value (or dose) which can be reached in different ways: low concentrations and long duration of exposure or conversely. […]

[1] = CT 1 050 g·h/m^3 (C 15.91 g/m^3, T 66 h)
[2] = CT 1 402 g·h/m^3 (C 21.24 g/m^3, T 66 h)
[3] = CT 1 450 g·h/m^3 (C 30.96 g/m^3, T 48 h)
[4] = CT 1 899 g·h/m^3 (C 28.77 g/m^3, T 66 h)
[5] = CT 1 981 g·h/m^3 (C 30.02 g/m^3, T 66 h)
[6] = CT 2 460 g·h/m^3 (C 51.25 g/m^3, T 48 h)
[7] = CT 2 471 g·h/m^3 (C 37.44 g/m^3, T 66 h)
[8] = CT 2 837 g·h/m^3 (C 42.98 g/m^3, T 66 h)
[9] = CT 2 974 g·h/m^3 (C 45.06 g/m^3, T 66 h)
[10] = CT 3 169 g·h/m^3 (C 48.02 g/m^3, T 66 h)
[11] = CT 3 467 g·h/m^3 (C 52.53 g/m^3, T 66 h), called an abnormal point
[12] = CT 419 g·h/m^3 (C 17.46 g/m^3, T 24 h)
[13] = CT 625 g·h/m^3 (C 26.04 g/m^3, T 24 h)
[14] = CT 703 g·h/m^3 (C 29.29 g/m^3, T 24 h)
[15] = CT 907 g·h/m^3 (C 37.79 g/m^3, T 24 h)

In the case of `CSSC` [DMDS, dimethyl disulphide], the “Viability V” value [1] is reported as 41.8%, the “Vitality score Nm (over 19 days)” value [1] is reported as 5.1 and the “Reduction in viability RV” value [1] is reported as 56.1. The “Reduction in vitality score RNm” value [1] was 63.6, the “Viability V” value [2] was 46.8% and the “Vitality score Nm (over 19 days)” value [2] was 1.3. For the same molecule, the “Reduction in viability RV” value [2] was 50.9, the “Reduction in vitality score RNm” value [2] was 90.6 and the “Viability V” value [3] was 29.8%. For the same molecule, the “Vitality score Nm (over 19 days)” value [3] was 1.0, the “Reduction in viability RV” value [3] was 65.8 and the “Reduction in vitality score RNm” value [3] was 92.1. The “Viability V” value [4] was 29.6%, the “Vitality score Nm (over 19 days)” value [4] was 3.6 and the “Reduction in viability RV” value [4] was 68.9. The “Reduction in vitality score RNm” value [4] was 74.8, the “Viability V” value [5] was 20.3% and the “Vitality score Nm (over 19 days)” value [5] was 2.7. The “Reduction in viability RV” value [5] was 78.7, the “Reduction in vitality score RNm” value [5] was 81.2 and the “Viability V” value [6] was 14.6%. The “Vitality score Nm (over 19 days)” value [6] was 0.7, the “Reduction in viability RV” value [6] was 83.2 and the “Reduction in vitality score RNm” value [6] was 94.9. For the same molecule, the “Viability V” value [7] was 32.9%, the “Vitality score Nm (over 19 days)” value [7] was 4.6 and the “Reduction in viability RV” value [7] was 67.1. For the same molecule, the “Reduction in vitality score RNm” value [7] was 70.5, the “Viability V” value [8] was 14.1% and the “Vitality score Nm (over 19 days)” value [8] was 1.8. For the same molecule, the “Reduction in viability RV” value [8] was 85.2, the “Reduction in vitality score RNm” value [8] was 87.5 and the “Viability V” value [9] was 11.2%. The “Vitality score Nm (over 19 days)” value [9] was 1.6, the “Reduction in viability RV” value [9] was 88.8 and the “Reduction in vitality score RNm” value [9] was 89.9. The “Viability V” value [10] was 0%, the “Vitality score Nm (over 19 days)” value [10] was 0 and the “Reduction in viability RV” value [10] was 100. The “Reduction in vitality score RNm” value [10] was 100, the “Viability V” value [11] was 32.3% and the “Vitality score Nm (over 19 days)” value [11] was 3.3. The “Reduction in viability RV” value [11] was 67.7, the “Reduction in vitality score RNm” value [11] was 79.0 and the “Viability V” value [12] was 89.7%. For the same molecule, the “Vitality score Nm (over 19 days)” value [12] was 13.3, the “Reduction in viability RV” value [12] was −3.0 and the “Reduction in vitality score RNm” value [12] was −3.6. The “Viability V” value [13] was 87.8%, the “Vitality score Nm (over 19 days)” value [13] was 12.8 and the “Reduction in viability RV” value [13] was −0.8. The “Reduction in vitality score RNm” value [13] was 0.1, the “Viability V” value [14] was 85.4% and the “Vitality score Nm (over 19 days)” value [14] was 12.6. The “Reduction in viability RV” value [14] was 2.0, the “Reduction in vitality score RNm” value [14] was 2.2 and the “Viability V” value [15] was 81.6%. The “Vitality score Nm (over 19 days)” value [15] was 12.0, the “Reduction in viability RV” value [15] was 6.3 and the “Reduction in vitality score RNm” value [15] was 6.6.
